Read-outs that look alike come from different tables or passages of the source.
Columns and labels:
EKVX = test: cells; details: Homo sapiens
recombinant hDHFR = recombinant hDHFR (Homo sapiens, UniProt P00374); test: DHFR inhibitory assay
Method: DHFR inhibition assay kit (BioVision, K247–100) supplied with recombinant hDHFR was utilised in this assay. The assay was performed as instructed in assay kit[32]. Briefly, in a 96-well clear plate, serial dilutions of the test compound (2 μL) were loaded. […] An assay buffer (100 µl) was used as a Background Control. Then, 40 μL of diluted NADPH in assay buffer (40-fold dilution) was added and mixed well. At 25 °C in the dark, the plate was incubated for 15 min. […] Instantaneously, the absorbance was read at 340 nm for 10–20 min at 25 °C in kinetic mode by Robonik ELISA plate reader. Finally, the activity and relative inhibition percentages were measured using the equations indicated in the assay kit[33–35].

SNB-75 [1] = test: cells; details: Homo sapiens
786-0 = test: cells; details: Homo sapiens
SW-620 = test: cells; details: Homo sapiens
LOX IMVI = test: cells; details: Homo sapiens
SK-MEL-28 = details: SK-MEL-28, Melanoma; five-dose 0.01–100 µM
TK-10 = test: cells; details: Homo sapiens
[2] = test system: HSF (Normal human skin fibroblast) cells; test: MTT cytotoxicity assay; type: cell-based; details: HSF normal fibroblasts, 48 h, mean ± SD from triplicates
Method: The results hinted that 6i elicited stronger cytotoxicity and higher selectivity for cancer than normal cells.
The MTT assay was carried out according to the procedure cited earlier. Briefly, in a 96-well plate, either cancer or normal cells were seeded (10^6 cells/cm^2; 100 µL/well) and incubated for 12 h at 37 °C and CO2 (5%), then serial dilutions of compound 6i were added and incubated for 48 h using DMSO control (0.5% V/V). MTT (3-(4,5-dimethylthiazoyl)-2,5-diphenyl-tetrazolium bromide; Cat. No. M-5655) 5 mg/mL was then added. After 4 h incubation, the formed MTT formazan crystals were solubilised by 10% Triton X-100 plus 0.1 N HCl in anhydrous isopropanol. The absorbance was read using a Bioline plate reader at λ570–630 nm[25–29]. The selectivity of 6i towards HSF cells was also determined as follows[30]^,[31]: SI=IC50HSF cells/IC50of cancer cells

SF-268 = test: cells; details: Homo sapiens
SNB-75 [3] = details: SNB-75, CNS cancer; five-dose 0.01–100 µM
COLO 205 = test: cells; details: Homo sapiens
MCF-7 cells = test: Cell cycle analysis (PI, flow cytometry); type: cell-based, human; details: MCF-7, 10 µM, 48 h; DMSO control 24.95%
Method: Figure 5. Flow cytometric analyses: cell cycle distribution analysis using PI staining method in which MCF-7 cells were treated by 6i (10 µM) and DMSO (negative control; NC) for 48 h; (A) 6i, (B) DMSO, (C) cells percentage in different phases (G0-G1, S, G2/M); apoptotic induction using annexin-V-FITC/PI staining method in which cancer cells were treated by 6i (10 µM) and DMSO (negative control; NC) for 24 h; (D) 6i, (E) DMSO, (F) histogram for induction of apoptosis.
The cell cycle assay was carried out according to the previously reported[36]^,[37]. Briefly, in a six-well plate, 2 ml of MCF-7 cells were seeded per well and incubated overnight at 37 °C and CO2 (5%). After 12 h incubation with serum-free medium, they were treated with 10 μM of 6i, incubated for 48 h, then washed twice with 1× PBS, trypsinised and centrifuged for 5 min (500 xg) at 4 °C. And then the cell pellet, in ice-cold 1× PBS, was fixed with absolute ethanol at −20 °C for 2 h, washed with 1× PBS ice-cold solution and finally stained with propidium iodide (PI)/RNase (Abcam, ab139418) for 0.5 h at 25 °C in the dark. flow cytometry determined the DNA content in cell phases using BD FACS Calibur[36]^,[37].

MCF7 = test: cells; details: Homo sapiens
MALME-3M = details: Melanoma, five-dose 0.01–100 µM
RXF 393 = details: RXF 393, Renal cancer; five-dose 0.01–100 µM
OVCAR-4 = details: OVCAR-4, Ovarian cancer; five-dose 0.01–100 µM
T-47D [4] = test: cells; details: Homo sapiens, T47D
NCI-H226 = test: cells; details: Homo sapiens
U251 = test: cells; details: Homo sapiens
RPMI-8226 = details: RPMI-8226, Leukaemia; five-dose 0.01–100 µM
T-47D [5] = details: Breast cancer, five-dose 0.01–100 µM
SN12C = details: Renal cancer, five-dose 0.01–100 µM
A549/ATCC = test: cells; details: Homo sapiens
SK-MEL-5 = details: SK-MEL-5, Melanoma; five-dose 0.01–100 µM
PC-3 = details: PC-3, Prostate cancer; five-dose 0.01–100 µM
full NCI 59 cell panel = test: cells; details: Homo sapiens

Sequence of recombinant hDHFR (P00374 whole entry): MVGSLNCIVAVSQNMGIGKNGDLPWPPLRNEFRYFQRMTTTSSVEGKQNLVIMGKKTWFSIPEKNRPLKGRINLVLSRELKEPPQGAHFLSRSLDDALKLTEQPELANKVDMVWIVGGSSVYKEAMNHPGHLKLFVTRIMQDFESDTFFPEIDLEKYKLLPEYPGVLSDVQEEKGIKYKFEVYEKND

CCOC(=O)CC[C@H](NC(=O)c1ccc(NC(=O)Cn2cnc3c(c(C)nn3-c3ccc(Br)cc3)c2=O)cc1)C(=O)OCC [Compound 6i]
GI50 (EKVX): 10.4 µM
CC50 (EKVX; read-out: LC50): 71.7 µM
IC50 (recombinant hDHFR): 2.41 ± 0.13 µM
GI50 (SNB-75 [1]; SNB-75): 14.9 µM
CC50 (SNB-75 [1]; SNB-75, read-out: LC50): > 100 µM
GI50 (786-0; 786-0): 8.66 µM
CC50 (786-0; 786-0, read-out: LC50): > 100 µM
GI50 (SW-620; SW-620): 8.98 µM
CC50 (SW-620; SW-620, read-out: LC50): > 100 µM
GI50 (LOX IMVI): 5.3 µM
CC50 (LOX IMVI; read-out: LC50): 58.4 µM
TGI (SK-MEL-28): 22.5 µM
GI50 (TK-10; TK-10): 31.3 µM
CC50 (TK-10; TK-10, read-out: LC50): > 100 µM
IC50 [2]: 48.5 ± 2.43 µM
GI50 (SF-268; SF-268): 7.01 µM
CC50 (SF-268; SF-268, read-out: LC50): > 100 µM
TGI (SNB-75 [3]): 40.9 µM
GI50 (COLO 205; COLO 205): 14 µM
CC50 (COLO 205; COLO 205, read-out: LC50): 96 µM
percentage of S-phase cells (MCF-7 cells): 36.29%
GI50 (MCF7; MCF7): 3.93 µM
CC50 (MCF7; MCF7, read-out: LC50): 59.4 µM
TGI (MALME-3M): 29.9 µM
TGI (RXF 393): 50.9 µM
TGI (OVCAR-4): 32.1 µM
GI50 (T-47D [4]): 45.6 µM
CC50 (T-47D [4]; read-out: LC50): > 100 µM
GI50 (NCI-H226): 4.54 µM
GI50 (U251; U-251): 13.2 µM
CC50 (U251; U-251, read-out: LC50): > 100 µM
TGI (RPMI-8226): >100 µM
TGI (T-47D [5]): >100 µM
TGI (SN12C): >100 µM
GI50 (A549/ATCC; A549): 9.81 µM
CC50 (A549/ATCC; A549, read-out: LC50): > 100 µM
TGI (SK-MEL-5): 43.1 µM
TGI (PC-3): 19.4 µM
GI50 (full NCI 59 cell panel; range over HOP-62, A549/ATCC, HOP-92, NCI-H23, NCI-H226, SF-268, HCT-116, OVCAR-8, LOX IMVI, DU-145, PC-3, 786-0, BT-549, MCF7): 3.93 to 9.85 µM
GI50 (full NCI 59 cell panel; range over the residual examined cell lines): 10.1 to 71 µM
CC50 (full NCI 59 cell panel; read-out: LC50, most of the examined cancer cells): > 100 µM
CC50 (full NCI 59 cell panel; read-out: LC50, range over the 23 cell lines listed in b28 as exceptions): 47 to 96.1 µM

Reference: publication PMC10120551, “Novel Glu-based pyrazolo[3,4-d]pyrimidine analogues: design, synthesis and biological evaluation as DHFR and TS dual inhibitors” (Journal of Enzyme Inhibition and Medicinal Chemistry, 2023)
